Results on 21 compounds are retold here after PubChem BioAssay AID248 (DTP/NCI, 2004).

In this assay the test system is L1210 leukemia ip in BDF1 mice, survival T/C. Put plainly: NCI In Vivo Anticancer Drug Screen. Data for tumor model L1210 Leukemia (intraperitoneal) in B6D2F1 (BDF1) mice. The note with it: endpoint: mean survival time, higher = longer survival. A digest of the protocol:
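Read-out is survival time, reported as the treated-group measurement over the vehicle-control measurement.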

The mark [1] stands for this setting: dose: 100.0 mg/kg/injection, schedule: Q04DX002 (ip), vehicle: Klucel (hydroxypropylcellulose) (HPC).
[2] abbreviates: dose: 200.0 mg/kg/injection, schedule: Q04DX002 (ip), vehicle: Klucel (hydroxypropylcellulose) (HPC).
Setting [3] is: dose: 400.0 mg/kg/injection, schedule: Q04DX002 (ip), vehicle: Klucel (hydroxypropylcellulose) (HPC).
Setting [4] is: dose: 50.0 mg/kg/injection, schedule: Q01DX001 (ip), vehicle: carboxymethylcellulose (CMC).
Setting [5] is: dose: 100.0 mg/kg/injection, schedule: Q01DX001 (ip), vehicle: carboxymethylcellulose (CMC).
Setting [6] is: dose: 200.0 mg/kg/injection, schedule: Q01DX001 (ip), vehicle: carboxymethylcellulose (CMC).
[7] abbreviates: dose: 400.0 mg/kg/injection, schedule: Q01DX001 (ip), vehicle: carboxymethylcellulose (CMC).
[8] abbreviates: dose: 100.0 mg/kg/injection, schedule: Q01DX001 (ip), vehicle: Klucel (hydroxypropylcellulose) (HPC).
The mark [9] stands for this setting: dose: 200.0 mg/kg/injection, schedule: Q01DX001 (ip), vehicle: Klucel (hydroxypropylcellulose) (HPC).
Where [10] appears, read: dose: 400.0 mg/kg/injection, schedule: Q01DX001 (ip), vehicle: Klucel (hydroxypropylcellulose) (HPC).
[11] abbreviates: dose: 100.0 mg/kg/injection, schedule: Q04DX003 (ip), vehicle: Klucel (hydroxypropylcellulose) (HPC).
Setting [12] is: dose: 200.0 mg/kg/injection, schedule: Q04DX003 (ip), vehicle: Klucel (hydroxypropylcellulose) (HPC).
Setting [13] is: dose: 400.0 mg/kg/injection, schedule: Q04DX003 (ip), vehicle: Klucel (hydroxypropylcellulose) (HPC).

Where “and” joins values, the source holds several entries; their conditions need not be identical. Equal entries are not always repeated. Toxic doses and inconclusive results are not listed.

In the case of `C[CH2][Sn]([Cl])([CH2]C)[O][Sn]([Cl])([CH2]C)[CH2]C`, the T/C by setting is: (dose: 3.12 mg/kg/injection, schedule: Q04DX003 (ip), vehicle: saline with Tween-80) 100 % of control; (dose: 6.25 mg/kg/injection, schedule: Q04DX003 (ip), vehicle: saline with Tween-80) 100 % of control; (dose: 12.5 mg/kg/injection, schedule: Q04DX003 (ip), vehicle: saline with Tween-80) 106 % of control.

Regarding `c1ccc(P(CN(CCN(CP(c2ccccc2)c2ccccc2)CP(c2ccccc2)c2ccccc2)CP(c2ccccc2)c2ccccc2)c2ccccc2)cc1`, the T/C was 100 % of control (dose: 100.0 mg/kg/injection, schedule: Q04DX002 (sc), vehicle: olive oil, sesame oil, peanut oil); 110 % of control (dose: 200.0 mg/kg/injection, schedule: Q04DX002 (sc), vehicle: olive oil, sesame oil, peanut oil); 107 % of control (dose: 400.0 mg/kg/injection, schedule: Q04DX002 (sc), vehicle: olive oil, sesame oil, peanut oil).

For `COc1ccc(OC)c(-n2cccc2/C=N/NC(N)=O)c1`, the T/C was 97 % of control under setting [1], 108 % of control under setting [2] and 93 % of control under setting [3].

On to `CCCCCCCCCCCCCCS(=O)(=O)CCCl`, for which the T/C reads like this: (dose: 100.0 mg/kg/injection, schedule: Q04DX003 (ip), vehicle: carboxymethylcellulose (CMC)) 98 % of control; (dose: 200.0 mg/kg/injection, schedule: Q04DX003 (ip), vehicle: carboxymethylcellulose (CMC)) 94 % of control; (dose: 400.0 mg/kg/injection, schedule: Q04DX003 (ip), vehicle: carboxymethylcellulose (CMC)) 94 % of control.

With `Cc1ccc(C(=O)Cc2ccccc2)cc1`, the T/C was 94 % of control under setting [1], 98 % of control under setting [2] and 110 % of control under setting [3].

For `CCOC(=O)n1cnc2ncnc(SC)c21`, the T/C (dose: 25.0 mg/kg/injection, schedule: Q01DX015 (ip), vehicle: saline) is 102 % of control; the T/C under setting [4] is 94 % of control and 106 % of control; the T/C (dose: 50.0 mg/kg/injection, schedule: Q01DX015 (ip), vehicle: saline) was 96 % of control; the T/C under setting [5] was 109 % of control and 114 % of control; the T/C (dose: 100.0 mg/kg/injection, schedule: Q01DX015 (ip), vehicle: saline) was 103 % of control; the T/C under setting [6] was 88 % of control. Besides, the T/C is 91 % of control (dose: 200.0 mg/kg/injection, schedule: Q01DX015 (ip), vehicle: saline) and 109 % of control under setting [7].

Take `Cc1ccc(O)c(-c2ccccc2)c1`: the T/C reads like this: under setting [8], 100 % of control; under setting [9], 100 % of control; under setting [10], 103 % of control.

`C/C(=C/c1ccccc1)C(=O)NN`: the T/C (dose: 80.0 mg/kg/injection, schedule: Q01DX001 (ip), vehicle: saline with Tween-80) was 98 % of control and the T/C (dose: 160.0 mg/kg/injection, schedule: Q01DX001 (ip), vehicle: saline with Tween-80) is 106 % of control.

`O=C(O)CCNCC(=O)O`: the T/C is, setting by setting: (dose: 75.0 mg/kg/injection, schedule: Q01DX001 (ip), vehicle: saline) 100 % of control; (dose: 150.0 mg/kg/injection, schedule: Q01DX001 (ip), vehicle: saline) 100 % of control; (dose: 300.0 mg/kg/injection, schedule: Q01DX001 (ip), vehicle: saline) 101 % of control.

With `ClCCN(CCCl)c1ccc(C=Nc2ccc(-c3ccccn3)cc2)cc1`, the T/C by setting is: under setting [4], 102 % of control; under setting [5], 96 % of control; under setting [6], 91 % of control; under setting [7], 100 % of control.

Consider `Oc1ccccc1C=NCCN1CC1.Oc1ccccc1C=NCCN1CC1.[Co+2]`, for which the T/C is, setting by setting: (dose: 20.0 mg/kg/injection, schedule: Q04DX002 (ip), vehicle: saline + alcohol) 102 % of control; (dose: 40.0 mg/kg/injection, schedule: Q04DX002 (ip), vehicle: saline + alcohol) 106 % of control; (dose: 80.0 mg/kg/injection, schedule: Q04DX002 (ip), vehicle: saline + alcohol) 98 % of control.

`Cc1cc(Cl)c2cc(Cl)cc(Cl)c2n1`: the T/C is 89 % of control (dose: 100.0 mg/kg/injection, schedule: Q01DX009 (ip), vehicle: saline); 91 % of control (dose: 100.0 mg/kg/injection, schedule: Q04DX003 (ip), vehicle: saline); 96 % of control (dose: 200.0 mg/kg/injection, schedule: Q01DX009 (ip), vehicle: saline); 89 % of control (dose: 200.0 mg/kg/injection, schedule: Q04DX003 (ip), vehicle: saline); 94 % of control (dose: 400.0 mg/kg/injection, schedule: Q04DX003 (ip), vehicle: saline).

Consider `[N-]=[N+]=CC(=O)OCC(N)C(=O)O` (centres undefined), for which the T/C runs as follows: (dose: 100.0 mg/kg/injection, schedule: Q01DX009 (ip), vehicle: water) 103 % of control; (dose: 200.0 mg/kg/injection, schedule: Q01DX009 (ip), vehicle: water) 105 % of control; (dose: 400.0 mg/kg/injection, schedule: Q01DX009 (ip), vehicle: water) 89 % of control.

For `N#CCCN(C(=O)Nc1ccc(Cl)c(Cl)c1)C1CCCCC1`, the T/C is, setting by setting: under setting [1], 107 % of control; under setting [2], 100 % of control; under setting [3], 111 % of control.

Regarding `O=C(NCCCCCCCCCNC(=O)Nc1ccc(C2=NCCN2)cc1)Nc1ccc(C2=NCCN2)cc1`, the T/C is 102 % of control (dose: 62.0 mg/kg/injection, schedule: Q01DX Z (ip), vehicle: carboxymethylcellulose (CMC)) and 100 % of control (dose: 125.0 mg/kg/injection, schedule: Q01DX Z (ip), vehicle: carboxymethylcellulose (CMC)).

As for `CC/C(=C(\CC)c1ccc(OCCN(CCCl)CCCl)cc1)c1ccc(OCCN(CCCl)CCCl)cc1`, the T/C is, setting by setting: (dose: 25.0 mg/kg/injection, schedule: Q04DX002 (ip), vehicle: saline with Tween-80) 90 % of control; (dose: 50.0 mg/kg/injection, schedule: Q04DX002 (ip), vehicle: saline with Tween-80) 94 % of control; (dose: 100.0 mg/kg/injection, schedule: Q04DX002 (ip), vehicle: saline with Tween-80) 101 % of control.

As for `O=C(CCCCc1ccc([N+](=O)[O-])cc1)Nc1ccc(S(=O)(=O)F)cc1`, the T/C reads like this: (dose: 50.0 mg/kg/injection, schedule: Q01DX009 (ip), vehicle: Klucel (hydroxypropylcellulose) (HPC)) 102 % of control; (dose: 100.0 mg/kg/injection, schedule: Q01DX009 (ip), vehicle: Klucel (hydroxypropylcellulose) (HPC)) 100 % of control; (dose: 200.0 mg/kg/injection, schedule: Q01DX009 (ip), vehicle: Klucel (hydroxypropylcellulose) (HPC)) 88 % of control.

For the compound `CS(=O)(=O)OC1CCCCCCC1OS(C)(=O)=O` (centres undefined), the T/C (dose: 50.0 mg/kg/injection, schedule: Q04DX003 (ip), vehicle: Klucel (hydroxypropylcellulose) (HPC)) was 103 % of control; the T/C under setting [8] is 98 % of control; the T/C under setting [11] was 104 % of control; the T/C under setting [9] is 98 % of control; the T/C under setting [12] is 98 % of control; the T/C under setting [10] was 104 % of control. Also, the T/C under setting [13] is 104 % of control.

As for `CC(=O)N1c2ccccc2Sc2cc(C(O)(C(F)(F)F)C(F)(F)F)ccc21`, the T/C by setting is: (dose: 25.0 mg/kg/injection, schedule: Q01DX009 (ip), vehicle: saline with Tween-80) 95 % of control; (dose: 50.0 mg/kg/injection, schedule: Q01DX009 (ip), vehicle: saline with Tween-80) 95 % of control; (dose: 50.0 mg/kg/injection, schedule: Q04DX003 (ip), vehicle: saline with Tween-80) 95 % of control; (dose: 100.0 mg/kg/injection, schedule: Q01DX009 (ip), vehicle: saline with Tween-80) 95 % of control; (dose: 100.0 mg/kg/injection, schedule: Q04DX003 (ip), vehicle: saline with Tween-80) 91 % of control; (dose: 200.0 mg/kg/injection, schedule: Q04DX003 (ip), vehicle: saline with Tween-80) 91 % of control.

Take `O=[N+]([O-])c1ccc(C2=Cc3cccn3-c3ccccc3S2(=O)=O)cc1`: the T/C is 96 % of control under setting [11], 95 % of control under setting [12] and 98 % of control under setting [13].

As for `N/C(=N\O)c1nn(C2OC(CO)C(O)C2O)c2ncnc(N)c12` (centres undefined), the T/C (dose: 25.0 mg/kg/injection, schedule: Q01DX005 (ip), vehicle: saline) was 171 % of control.
